Each structure is given as a SMILES string. Counter-ions that a name gives are not always drawn.

The values below come from EP0155094A1, “2-Arylimidazo(4,5-c)pyridines” (ELI LILLY AND COMPANY, priority 1984, dated 1985).

In assay [1] the test system is cardiac contractility. In words: Cardiac contractility in anesthetized dogs. It is filed as in vivo, Mongrel dogs. To be noted: Canis lupus familiaris, iv, i.v. bolus, read-out: ED50 (dose, i.v., which produced a peak increase of 50% over control). As to the method:
Mongrel dogs of either sex ranging in weight from 7 to 14 kg. were used. Anesthesia was induced with sodium pentobarbital (30 mg./kg., i.v.) and maintained with supplemental doses as required. A positive-pressure pump was used to ventilate the dogs through an endotracheal tube (18 strokes/minute, 20 ml./kg. stroke 1), and a heating pad kept the body temperature at 37-38°C. Femoral arterial blood pressure was measured through a polyethylene catheter filled with heparin solution (16 units/ml.) and connected to a Statham pressure transducer. A strain-gauge arch sutured to the right ventricle of the heart measured cardiac contractility. Tension on the gauge was adjusted to 50 g. and the gain of the recorder (Beckman dynograph) was set so that 50 g. caused a 10-mm. pen deflection; cardiac contractile tension was measured as millimeters of pen deflection or grams of tension. The drug was administered following a 30-45 minute equilibrium period as an i.v. bolus (2-5 ml.) in a normal saline vehicle. […] The maximum effects on contractility at various dose levels were calculated as a percent of control (control = 100 percent). The compound of Example 1 produced an ED50 (dose, i.v., which produced a peak increase of 50% over control) of 0.030 mg./kg. while the compound of Example 2 gave an ^ED50 of 6 mcg./kg.

Assay [2] deals with Isolated Cat Papillary Muscles. Briefly: Positive inotropic activity in isolated cat papillary muscles. Conditions: Felis catus, maximum contractility, isolated cat papillary muscle, read-out: contractility, percent of control (control = 100 percent); for activity at 100 µM: 10^-4 M; for activity at 10 µM: 10^-5 M. Also on record: species or system Cats. As to the method:
Cats of either sex were anesthetized with Metofane (1,1-difluoro-2,2-dichloroethyl methyl ether, Pittman-Moore) their hearts immediately removed and the papillary muscles dissected and suspended in individual organ baths. A platinum hook secured one end of the muscle to an electrode mounted in the bottom of the bath, and a silk thread attached the tendon to a Statham isometric transducer. The baths contained Krebs-Henseleit solution (36°C., bubbled with 95 percent oxygen - 5 percent carbon dioxide) of the following millimolar composition: NaCl, 118; KCl, 4.5; CaCl2, 2.5; KH2PO4, 1.1; MgS04, 1.2; NaHCO3, 25; and glucose, 11.
A base-line tension of 1.5 g. was applied to each muscle. Square-wave pulses (5.0 msec. in duration, 20 percent above threshold voltage) delivered through the hook electrode and a second electrode positioned near the top of the muscle evoked 12 contractions/minute, which were recorded on a Grass polygraph. After the muscles were equilibrated for 60 minutes, drugs were introduced in normal saline to bring the final concentration of the drug to 10 5 or 10^-4 molar. Increases in contractility were tabulated as millimeters of pen deflection in excess of the baseline values. In each experiment the maximum contractility was measured. As a percent of control (control = 100 percent), the compound of Example 1 produced a contractility of 149% at 10^-5 M and 168% at 10^-4 M and the compound of Example 2 gave a contractility of 240% at 10^-5M and 326% at 10^-4M.

The ED50 is the dose that gives a 50% effect, or the effect in half of the subjects. As for `COc1cc(NS(C)(=O)=O)ccc1-c1nc2cnccc2[nH]1` [Example 1, 2-(2-Methoxy-4-methylsulfonamidophenyl)imidazo[4,5-c]pyridine], the 50% effective dose (ED50) in assay [1] is 0.03 mg/kg. For the same compound, in assay [2], the activity at 100 µM stood at 168% and the activity at 10 µM stood at 149%.
The corresponding values for `COc1cc(OS(C)(=O)=O)ccc1-c1nc2cnccc2[nH]1` [Example 2, 4-(Imidazo[4,5-c]pyridin-2-yl)-3-methoxyphenol, methanesulfonate (ester) hydrochloride] are 0.006 mg/kg, 326% and 240%.
